# Results taken from ChEMBL document CHEMBL1201862, “PubChem BioAssay data set” (2004).
#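 Assay format: 96-well plates, 48-hour exposure. GI50 = concentration required for 50% inhibition of growth.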 Activity calls are given as the source filed them. No stated cut-off is given here; in the data, active = GI50 up to about 1.1 µM and inactive = higher.
# How the values were obtained:
# Test in all cases: NCI-60 cell line screen, 48 h
# [1] = test system: SK-MEL-28
# [2] = test system: A549
# [3] = test system: 786-0
# [4] = test system: A498
# [5] = test system: HCC 2998
# [6] = test system: BT-549
# [7] = test system: OVCAR-3
# [8] = test system: K562
# [9] = test system: UO-31
# [10] = test system: LOX IMVI
# [11] = test system: EKVX
# [12] = test system: CCRF-CEM
# [13] = test system: MDA-MB-435
# [14] = test system: ACHN
# [15] = test system: MDA-MB-231
# [16] = test system: MOLT-4
# [17] = test system: KM12
# [18] = test system: HCT-15
# [19] = test system: SK-MEL-2
# [20] = test system: SNB-19
# [21] = test system: OVCAR-8
# [22] = test system: RXF 393
# [23] = test system: NCI/ADR-RES
# [24] = test system: TK-10
# [25] = test system: Malme-3M
# [26] = test system: NCI-H460
# [27] = test system: NCI-H522
# [28] = test system: Hs-578T
# [29] = test system: MCF7
# [30] = test system: HCT-116
# [31] = test system: HL-60
# [32] = test system: HT-29
# [33] = test system: MDA-N
# [34] = test system: SN12C
# [35] = test system: SW-620
# [36] = test system: T47D
# [37] = test system: HOP-62
# [38] = test system: SF-295
# [39] = test system: SK-OV-3
# [40] = test system: NCI-H23
# [41] = test system: SK-MEL-5
# [42] = test system: UACC-257
# [43] = test system: OVCAR-4
# [44] = test system: CAKI-1
# [45] = test system: M14
# [46] = test system: DU-145
# [47] = test system: HOP-92
# [48] = test system: RPMI-8226
# [49] = test system: UACC-62
# [50] = test system: SNB-75
# [51] = test system: SF-268
# [52] = test system: COLO 205
# [53] = test system: OVCAR-5
# [54] = test system: SF-539
# [55] = test system: U-251
# [56] = test system: PC-3
# [57] = test system: IGROV-1
# [58] = test system: NCI-H226
structure (smiles),measurement,setting,value
COC(=O)C1CC23C4=C(CCC41)CCC1CN4CC(C)C(CC(OC(C)=O)C12COC(C)=O)C43O (centres undefined),GI50,[1],> 100 µM (inactive)
same,GI50,[2],> 100 µM (inactive)
same,GI50,[3],> 100 µM (inactive)
same,GI50,[4],> 100 µM (inactive)
same,GI50,[5],> 100 µM (inactive)
same,GI50,[6],> 100 µM (inactive)
same,GI50,[7],> 100 µM (inactive)
same,GI50,[8],> 100 µM (inactive)
same,GI50,[9],> 100 µM (inactive)
same,GI50,[10],> 100 µM (inactive)
same,GI50,[11],> 100 µM (inactive)
same,GI50,[12],> 100 µM (inactive)
same,GI50,[13],> 100 µM (inactive)
same,GI50,[14],> 100 µM (inactive)
same,GI50,[15],> 100 µM (inactive)
same,GI50,[16],68.4 µM (inactive)
same,GI50,[17],> 100 µM (inactive)
same,GI50,[18],> 100 µM
same,GI50,[19],> 100 µM (inactive)
same,GI50,[20],> 100 µM (inactive)
same,GI50,[21],> 100 µM (inactive)
same,GI50,[22],> 100 µM (inactive)
same,GI50,[23],> 100 µM (inactive)
same,GI50,[24],> 100 µM (inactive)
same,GI50,[25],> 100 µM (inactive)
same,GI50,[26],> 100 µM (inactive)
same,GI50,[27],> 100 µM (inactive)
same,GI50,[28],> 100 µM (inactive)
same,GI50,[29],> 100 µM (inactive)
same,GI50,[30],> 100 µM (inactive)
same,GI50,[31],> 100 µM (inactive)
same,GI50,[32],> 100 µM (inactive)
same,GI50,[33],> 100 µM (inactive)
same,GI50,[34],> 100 µM (inactive)
same,GI50,[35],> 100 µM (inactive)
same,GI50,[36],> 100 µM (inactive)
same,GI50,[37],> 100 µM (inactive)
same,GI50,[38],> 100 µM (inactive)
same,GI50,[39],> 100 µM (inactive)
same,GI50,[40],> 100 µM (inactive)
same,GI50,[41],> 100 µM (inactive)
same,GI50,[42],> 100 µM (inactive)
same,GI50,[43],> 100 µM (inactive)
same,GI50,[44],> 100 µM (inactive)
same,GI50,[45],> 100 µM (inactive)
same,GI50,[46],> 100 µM (inactive)
same,GI50,[47],> 100 µM (inactive)
same,GI50,[48],> 100 µM (inactive)
same,GI50,[49],> 100 µM (inactive)
same,GI50,[50],> 100 µM (inactive)
same,GI50,[51],> 100 µM (inactive)
same,GI50,[52],> 100 µM (inactive)
same,GI50,[53],> 100 µM (inactive)
same,GI50,[54],> 100 µM (inactive)
same,GI50,[55],> 100 µM (inactive)
same,GI50,[56],> 100 µM (inactive)
same,GI50,[57],> 100 µM (inactive)
Cc1cccc(C)c1NC(=O)C(=O)CC(=O)c1sc(Nc2c(C)cccc2C)nc1C,GI50,[2],> 100 µM (inactive)
same,GI50,[3],> 100 µM (inactive)
same,GI50,[4],86.7 µM (inactive)
same,GI50,[5],> 100 µM (inactive)
same,GI50,[6],> 100 µM (inactive)
same,GI50,[7],> 100 µM (inactive)
same,GI50,[8],> 100 µM (inactive)
same,GI50,[9],50.8 µM (inactive)
same,GI50,[10],> 100 µM (inactive)
same,GI50,[11],> 100 µM (inactive)
same,GI50,[12],> 100 µM (inactive)
same,GI50,[13],> 100 µM (inactive)
same,GI50,[14],> 100 µM (inactive)
same,GI50,[15],> 100 µM (inactive)
same,GI50,[16],> 100 µM (inactive)
same,GI50,[17],> 100 µM (inactive)
same,GI50,[18],> 100 µM
same,GI50,[19],> 100 µM (inactive)
same,GI50,[20],> 100 µM (inactive)
same,GI50,[21],> 100 µM (inactive)
same,GI50,[22],61.1 µM (inactive)
same,GI50,[23],> 100 µM (inactive)
same,GI50,[24],> 100 µM (inactive)
same,GI50,[26],> 100 µM (inactive)
same,GI50,[27],> 100 µM (inactive)
same,GI50,[28],> 100 µM (inactive)
same,GI50,[29],> 100 µM (inactive)
same,GI50,[30],> 100 µM (inactive)
same,GI50,[58],> 100 µM (inactive)
same,GI50,[31],25.5 µM (inactive)
same,GI50,[32],> 100 µM (inactive)
same,GI50,[33],> 100 µM (inactive)
same,GI50,[34],> 100 µM (inactive)
same,GI50,[35],> 100 µM (inactive)
same,GI50,[36],> 100 µM (inactive)
same,GI50,[37],> 100 µM (inactive)
same,GI50,[38],> 100 µM (inactive)
same,GI50,[39],> 100 µM (inactive)
same,GI50,[40],> 100 µM (inactive)
same,GI50,[42],> 100 µM (inactive)
same,GI50,[43],> 100 µM (inactive)
same,GI50,[44],> 100 µM (inactive)
same,GI50,[45],> 100 µM (inactive)
same,GI50,[46],> 100 µM (inactive)
same,GI50,[47],> 100 µM (inactive)
same,GI50,[48],> 100 µM (inactive)
same,GI50,[49],> 100 µM (inactive)
same,GI50,[50],22.7 µM (inactive)
same,GI50,[51],> 100 µM (inactive)
same,GI50,[52],> 100 µM (inactive)
same,GI50,[53],> 100 µM (inactive)
same,GI50,[54],> 100 µM (inactive)
same,GI50,[55],> 100 µM (inactive)
same,GI50,[56],> 100 µM (inactive)
same,GI50,[57],> 100 µM (inactive)
CCCCCCCCP(=O)(O)OP(=O)(O)OCC1OC(n2ccc(N)nc2=O)C(O)C1O (centres undefined),GI50,[1],> 100 µM (inactive)
same,GI50,[2],> 100 µM (inactive)
same,GI50,[3],> 100 µM (inactive)
same,GI50,[4],> 100 µM (inactive)
same,GI50,[5],> 100 µM (inactive)
same,GI50,[6],> 100 µM (inactive)
same,GI50,[7],> 100 µM (inactive)
same,GI50,[8],> 100 µM (inactive)
same,GI50,[9],> 100 µM (inactive)
same,GI50,[10],> 100 µM (inactive)
same,GI50,[11],> 100 µM (inactive)
same,GI50,[12],> 100 µM (inactive)
same,GI50,[13],> 100 µM (inactive)
same,GI50,[14],> 100 µM (inactive)
same,GI50,[15],> 100 µM (inactive)
same,GI50,[16],> 100 µM (inactive)
same,GI50,[17],> 100 µM (inactive)
same,GI50,[18],> 100 µM
same,GI50,[19],> 100 µM (inactive)
same,GI50,[20],> 100 µM (inactive)
same,GI50,[21],> 100 µM (inactive)
same,GI50,[22],> 100 µM (inactive)
same,GI50,[23],> 100 µM (inactive)
same,GI50,[24],> 100 µM (inactive)
same,GI50,[25],> 100 µM (inactive)
same,GI50,[26],> 100 µM (inactive)
same,GI50,[27],> 100 µM (inactive)
same,GI50,[28],> 100 µM (inactive)
same,GI50,[29],> 100 µM (inactive)
same,GI50,[30],> 100 µM (inactive)
same,GI50,[58],> 100 µM (inactive)
same,GI50,[31],> 100 µM (inactive)
same,GI50,[32],> 100 µM (inactive)
same,GI50,[33],> 100 µM (inactive)
same,GI50,[34],> 100 µM (inactive)
same,GI50,[35],> 100 µM (inactive)
same,GI50,[36],> 100 µM (inactive)
same,GI50,[37],> 100 µM (inactive)
same,GI50,[38],> 100 µM (inactive)
same,GI50,[39],> 100 µM (inactive)
same,GI50,[40],> 100 µM (inactive)
same,GI50,[41],> 100 µM (inactive)
same,GI50,[42],> 100 µM (inactive)
same,GI50,[43],> 100 µM (inactive)
same,GI50,[44],> 100 µM (inactive)
same,GI50,[45],> 100 µM (inactive)
same,GI50,[47],> 100 µM (inactive)
same,GI50,[48],> 100 µM (inactive)
same,GI50,[49],> 100 µM (inactive)
same,GI50,[50],> 100 µM (inactive)
same,GI50,[51],> 100 µM (inactive)
same,GI50,[52],> 100 µM (inactive)
same,GI50,[53],> 100 µM (inactive)
same,GI50,[54],> 100 µM (inactive)
same,GI50,[55],> 100 µM (inactive)
same,GI50,[56],> 100 µM (inactive)
same,GI50,[57],> 100 µM (inactive)
